According to the METLIN SMRT retention time set (Domingo-Almenara et al. 2019):

Experiment: gradient 5% acetonitrile 3 min, to 50% in 2 min, to 85% in 15 min, held 3 min, 100 µL/min
Details: column: Zorbax Extend-C18 2.1 x 50 mm; eluents: water / acetonitrile, 0.1% formic acid
How it was run: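 Retention times come from adduct peaks that were picked computationally and then checked by hand. The standards, pure and pooled in mixtures of ~100 molecules, were run on a Zorbax Extend-C18 column (2.1 × 50 mm, 1.8 μm) at 100 μL/min with water and acetonitrile, each with 0.1% formic acid. Detection was by quadrupole time-of-flight mass spectrometry in positive and negative ionization mode, with a dead volume of 40 μL and a dwell volume of 900 μL.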

| RP-LC retention time | SMILES |
| --- | --- |
| 838 s | CC(=O)N1CCc2ccccc2C1C(=O)NCc1cccc(C(F)(F)F)c1 (stereo unspecified) |
| 808 s | Cc1cc(C2CCCN2C(=O)Nc2ccc(F)c(Cl)c2)no1 (stereo unspecified) |
| 793 s | O=C(CC1CCN(C(=O)c2ccc3oc(-c4ccccc4)nc3c2)CC1)NCc1ccco1 |
| 790 s | O=[N+]([O-])c1cccc(C2Oc3ccccc3C3CC(c4cccnc4)=NN32)c1 (stereo unspecified) |
| 1110 s | CCn1cc(-c2nc(C(=O)Nc3ccc(OC)c(Cl)c3)cs2)c2cccnc21 |
| 859 s | O=C(NC1CC1)C1CCN(c2nc(-c3ccc(Cl)cc3)no2)CC1 |
| 1060 s | CCN1C(=O)C(C(=O)Nc2cccc(C)c2)C2CC1(C)Oc1ccccc12 (stereo unspecified) |
| 676 s | COc1ccc(C(=O)NC2CCN(c3cc(-c4cccs4)[nH]n3)C2)cn1 (stereo unspecified) |
| 924 s | CCCNC(=O)N1CCCN(Cc2ccc3c(c2)OCO3)c2ccccc21 |
| 1060 s | COc1ccc(C(C)NC(=O)C2CCN(c3nccnc3Sc3ccc(C)cc3)CC2)cc1 (stereo unspecified) |
| 686 s | Cc1nnc(N2CCCC(C(=O)N3CCCCC3)C2)c2nn(-c3ccccc3)c(C)c12 (stereo unspecified) |
| 737 s | O=C(NCc1cccs1)c1ccc(-n2cccn2)nn1 |
| 870 s | CNS(=O)(=O)c1ccc(Cl)c(-c2nnc(-c3ccccc3)o2)c1 |
| 701 s | CC(=O)N1CCc2cc(N3CC(C(=O)Nc4ccccc4Cl)CC3=O)ccc21 (stereo unspecified) |
| 918 s | O=c1ccc(-c2nc(-c3ccc(Br)cc3)no2)cn1Cc1cc(=O)n2ccccc2n1 |
| 1070 s | Cc1cc(C)c(S(=O)(=O)N2CCC(C(=O)NCCc3csc(-c4ccccc4)n3)CC2)c(C)c1 |
| 671 s | COc1ccccc1CNC(=O)Cc1nnc(-c2ccccn2)o1 |
| 817 s | Cc1ccccc1NC(=O)N1CCc2nc(-c3ccccc3)ncc2C1 |
| 926 s | COC(=O)c1cccc(NC(=O)CSc2cc(N3CCN(c4ccccc4OC)CC3)ncn2)c1 |
| 702 s | O=C(Cc1cccs1)N1CCC(c2noc(-c3ccncc3)n2)C1 (stereo unspecified) |

| RP-LC retention time | SMILES |
| --- | --- |
| 728 s | CCC(NC(=O)C1CCCN(c2cnc3nccnc3c2)C1)c1cccs1 (stereo unspecified) |
| 983 s | COc1ccc(-c2noc(C3CCCN3C(=O)Nc3ccccc3C)n2)cc1 (stereo unspecified) |
| 592 s | Cc1cc(N2CCN(C)CC2)nc2ccc(NC(=S)N(C)Cc3ccccc3)cc12 |
| 639 s | O=C(Nc1ccc2c(c1)OCCO2)N1CCC(Oc2ccccc2)C1 (stereo unspecified) |
| 729 s | Cc1ccc(C2Cn3cnc(C(=O)N4CCC(C(=O)NCc5ccco5)CC4)c3CO2)cc1 (stereo unspecified) |
| 760 s | O=C(CCc1nc2ccccc2s1)N1CCC(c2noc(-c3ccncc3)n2)C1 (stereo unspecified) |
| 748 s | COc1ccc(-c2nc(C(=O)N3CCN(C)CC3)sc2-c2ccc(OC)cc2)cc1 |
| 1230 s | Cc1c(Cl)cccc1NC(=O)C1CCCN(c2nc3ccccc3nc2C(F)(F)F)C1 (stereo unspecified) |
| 924 s | CCn1ccc(C(=O)N2c3ccccc3CC2c2nc(C3CC3)no2)n1 (stereo unspecified) |
| 1200 s | CC(C)n1c(=O)oc2cc(-c3noc(-c4cccc(F)c4)n3)ccc21 |
| 666 s | COc1ccc(-c2noc(-c3ccc(NCCCN4CCC(C)CC4)nc3)n2)cc1 |
| 634 s | Clc1ccc(OCc2nc(-c3cccnc3)n[nH]2)cc1 |
| 814 s | O=C(NCCc1csc(-c2ccccc2)n1)[C@H]1CCCN1C(=O)C1CCCC1 |
| 840 s | CCCCNC(=O)C1CCCN(c2ccc(=O)n(-c3cccc(Cl)c3)n2)C1 (stereo unspecified) |
| 640 s | Cc1cc(OCC(=O)NCc2ccccc2Br)nc(N2CCCC2)n1 |
| 596 s | CCn1c(=O)c(NCCc2ccc(Cl)cc2)nc2ccncc21 |
| 1310 s | Cc1ccc(-c2csc(NC(=O)Cc3csc(COc4ccc(Cl)c(C)c4)n3)n2)cc1 |
| 862 s | CC(C)c1cc(C2CCCN2C(=O)c2cccs2)no1 (stereo unspecified) |
| 595 s | O=C(Cc1c[nH]c2ccccc12)NCC1CCN(c2cc(-c3ccncc3)[nH]n2)CC1 |
| 979 s | O=C(CCc1nc(-c2ccc(N3CCCC3)cc2)no1)NCc1ccc2c(c1)OCO2 |

Further lines, the molecule ahead of its results:

| SMILES | RP-LC retention time |
| --- | --- |
| CN(CC(=O)N1CCN(c2ccccn2)CC1)c1nnc(N2CCCC2=O)s1 | 550 s |
| CCc1noc(C2(NC(=O)c3cccc(N(C)C)c3)CCCCC2)n1 | 867 s |
| COc1ccc(N2CCN(Cc3nc(-c4ccc(N5CCOCC5)nc4)no3)CC2)cc1 | 688 s |
| O=C(Nc1ccc(F)cc1F)c1c(O)c2cccnc2n(Cc2ccccc2)c1=O | 1310 s |
| CCCN(C)C[C@@H]1CC(F)(F)CN1C1CCN(S(=O)(=O)c2ccccc2F)CC1 | 712 s |
| CCCCNC(=O)C1CCCN(c2cc(=O)n(C)c(=O)n2CC)C1 (stereo unspecified) | 759 s |
| COc1ccc(-c2cn3ccn(-c4cccc(F)c4)c(=O)c3n2)cc1OC | 746 s |
| CCOC(=O)c1noc2nc(C)nc(Nc3cccc(OC)c3)c12 | 801 s |
| O=c1n(Cc2cccc(F)c2)nc2c(S(=O)(=O)N3CCN(c4ccc(F)cc4)CC3)cccn12 | 967 s |
| COc1cccc(OCC2c3ccsc3CCN2C(=O)CN(C(C)=O)C(C)C)c1 (stereo unspecified) | 808 s |
| CSc1ccc(-c2nc3ccccn3c2Nc2ccc(C)cc2)cc1 | 781 s |
| O=C(NC1CCN(Cc2ccccc2)CC1)C1CCCN(c2ncnc3c2nc2n3CCCCC2)C1 (stereo unspecified) | 1050 s |
| Cc1ccc(NC(=O)C2CCN(S(=O)(=O)c3cn(C)cn3)CC2)cc1 | 701 s |
| CS(=O)(=O)c1ccc(C(=O)N2CCN(c3ccccc3)CC2)cc1 | 683 s |
| CC(C)N1C(=O)C(C)(C(=O)Nc2ccc(Cl)cc2)Oc2cccnc21 (stereo unspecified) | 903 s |
| CCC(=O)N1c2ccc(S(=O)(=O)N3CCCCC3)cc2CC1C(=O)NC1CCCCCC1 (stereo unspecified) | 1010 s |
| COc1ccc2c(=O)c(Oc3ccc(C(=O)Nc4cccnc4)cc3)coc2c1 | 605 s |
| CCc1ccc(N2C(=O)CN(S(=O)(=O)CC)CC2(C)C(=O)NCc2ccccc2)cc1 (stereo unspecified) | 868 s |
| Cc1nn(-c2ccccc2)c2c1N(CCCC(=O)NCCN(C)C)C(=O)CS2 | 602 s |
| CN1CCCn2cc(S(=O)(=O)Nc3ccc(F)c(F)c3)cc2C1=O | 690 s |
| C#CC(C)(CC)OCC(O)CN1C(C)(C)CC(O)CC1(C)C (stereo unspecified) | 568 s |
| Cc1sc2ccn(C)c(=O)c2c1C(=O)NCc1cccc(Cl)c1 | 817 s |
| CCc1ccc(NC(=O)N2CCC(c3nc(C(=O)N4CCCC4)c(C)o3)CC2)cc1 | 870 s |
| CCOc1cc(=O)n2c(c1C(=O)OCc1ccc(Cl)cc1)CCCCC2 | 991 s |
| CC(C)(C)c1noc(Cc2nnc(-c3ccc(F)cc3)o2)n1 | 942 s |
| CC(C)COc1cc(=O)n2c(c1C(=O)N1CCOCC1)CCCCC2 | 656 s |

| SMILES | RP-LC retention time |
| --- | --- |
| COc1ccc(-n2nc(C)c3sc(N4CCCC(C(=O)NC5CCCCC5)C4)nc32)cc1 (stereo unspecified) | 1110 s |
| CC(C)CCNC(=O)N1CCC(OC2CCN(Cc3ccccc3)CC2)CC1 | 641 s |
| COC1CN(c2ccc(C)cc2)C12CCNCC2 (stereo unspecified) | 622 s |
| CCCN(CCC)CCCNC(=O)C1CCCN(c2nnc(N3CCCC3=O)s2)C1 (stereo unspecified) | 584 s |
| COc1ccc(-c2nc(-c3ccc4oc(C)nc4c3)no2)cc1OC | 978 s |
| Cc1ccccc1NS(=O)(=O)c1cc(-c2[nH]ncc2C(=O)N2CCCCC2)oc1C | 755 s |
| COc1ccc(C(C)NC(=O)C2CCN(c3cncnc3N3CCOCC3)CC2)cc1 (stereo unspecified) | 601 s |
| O=C(NCCC1CCN(C(=O)Nc2ccc(F)cc2F)CC1)c1cccs1 | 737 s |
| COc1ccc(C2CC(=O)N(c3cc(C)ccc3C)C(=O)C2)cc1OC | 872 s |
| Cc1nnc(-n2cccc2)s1 | 733 s |
| Cc1cccc(Cn2ccnc2C(N)=O)c1 | 801 s |
| CCc1cc(=O)n(CC(=O)NCCOC)c(N2CCOCC2)n1 | 577 s |
| CCc1noc([C@@H]2CC(F)(F)CN2C(=O)c2coc(C)n2)n1 | 732 s |
| CCCN1C(=O)C(CC(=O)N2CCOCC2)Sc2ncccc21 (stereo unspecified) | 641 s |
| CCOC(=O)c1[nH]c(C)c(CCC(=O)N2CCC(C(=O)NCc3ccc(F)cc3)CC2)c1C | 785 s |
| O=C(c1ccc2c(c1)CCN2C(=O)C1CC1)N1CCN(c2ccccc2)CC1 | 829 s |
| Cc1ccc2[nH]cc(CCNC(=O)COc3ccccc3)c2c1 | 904 s |
| COC(=O)CNC(=O)NC(C(=O)N1CCc2ccccc21)C(C)C (stereo unspecified) | 740 s |
| CCOC(=O)C(CC)n1cnc2c(cnn2-c2ccccc2)c1=O (stereo unspecified) | 857 s |
| CC1(C(=O)NCc2cccc(Cl)c2)Oc2cccnc2NC1=O (stereo unspecified) | 723 s |
| Cc1ccc(NC(=O)N2CCC(N3CCN(Cc4ccc(F)cc4)C(=O)C3=O)CC2)cc1 | 754 s |
| N#Cc1ccc(N2C=C(C(=O)N3CCCC3)S(=O)(=O)c3ccc(Cl)cc32)cc1 | 799 s |
| CC(=O)N1CC(c2nnc(C(C)C)o2)C2(CCOCC2)C1 (stereo unspecified) | 571 s |
| Cc1c(Cl)cccc1S(=O)(=O)N1CCC(CN2CCCCCC2)CC1 | 733 s |
| Cc1ccc(CN2C(=O)NC3(CCN(C(=O)c4ccc[nH]4)CC3)C2=O)cc1 | 767 s |
